Measured values as given in PMC7589233 (The Journal of Physiology, 2020).

Tests used:
TRPV1 [1] = target: T1, TRPV1 (Homo sapiens, UniProt Q8NER1); assay type: cell-based
TRPV1 [2] = target: T1, TRPV1; experiment: whole-cell patch clamp, agonist current at […]; assay type: cell-based

T1 sequence (Q8NER1 whole entry): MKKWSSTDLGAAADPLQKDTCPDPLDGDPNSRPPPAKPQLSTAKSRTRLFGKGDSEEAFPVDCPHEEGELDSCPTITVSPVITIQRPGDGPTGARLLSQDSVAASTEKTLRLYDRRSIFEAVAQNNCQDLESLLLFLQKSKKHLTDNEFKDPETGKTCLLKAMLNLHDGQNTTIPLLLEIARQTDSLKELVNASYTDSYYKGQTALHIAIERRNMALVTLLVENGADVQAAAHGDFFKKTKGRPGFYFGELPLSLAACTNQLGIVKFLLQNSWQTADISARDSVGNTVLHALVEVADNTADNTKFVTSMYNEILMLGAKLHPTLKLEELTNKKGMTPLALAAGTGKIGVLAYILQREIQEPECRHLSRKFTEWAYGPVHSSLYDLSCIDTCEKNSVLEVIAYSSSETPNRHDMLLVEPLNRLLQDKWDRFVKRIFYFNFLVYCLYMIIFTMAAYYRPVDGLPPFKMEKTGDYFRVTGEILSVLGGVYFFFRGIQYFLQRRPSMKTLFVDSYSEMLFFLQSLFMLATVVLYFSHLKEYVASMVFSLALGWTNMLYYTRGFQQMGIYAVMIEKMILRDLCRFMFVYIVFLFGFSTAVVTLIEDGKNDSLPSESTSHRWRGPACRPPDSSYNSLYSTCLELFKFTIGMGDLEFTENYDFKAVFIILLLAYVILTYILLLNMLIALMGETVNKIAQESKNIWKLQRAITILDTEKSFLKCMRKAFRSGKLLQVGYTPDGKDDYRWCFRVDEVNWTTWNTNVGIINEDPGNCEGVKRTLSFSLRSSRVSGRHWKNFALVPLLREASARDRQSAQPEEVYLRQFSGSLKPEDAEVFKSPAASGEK

IC50 (TRPV1 [1]) [nM]	Compound	whole-cell patch clamp, agonist current at 1 μM (TRPV1 [2])
34.3 ± 0.2	C=C1CC[C@H](O)C/C1=C/C=C1\CCC[C@]2(C)[C@@H]([C@H](C)CCCC(C)(C)O)CC[C@@H]12 [25OHD, 25-Hydroxyvitamin D]	–
–	CCCCCCCC/C=C\CCCCCCCC(=O)NCCc1ccc(O)c(O)c1 [OLDA, N-oleoyldopamine]	OLDA elicited whole‐cell currents that displayed similar kinetics to that observed with capsaicin
